Data reported in publication PMC4076210, “Discovery of Novel AKT Inhibitors with Enhanced Anti-Tumor Effects in Combination with the MEK Inhibitor” (PLoS ONE, 2014).
Like-named read-outs stand apart in the source and are kept apart here.

Tests used:
Format in all cases: biochemical
[1] = target: T1, BRK(h) (Homo sapiens, UniProt Q13882); assay: Kinase panel
T1 construct: purchased Millipore KinaseProfiler

[2] = target: T2, CaMKIIδ(h) (Homo sapiens, UniProt Q13557); assay: Kinase panel
T2 construct: purchased Millipore KinaseProfiler

[3] = target: T3, ALK4(h) (Homo sapiens, UniProt P36896); assay: Kinase panel
T3 construct: purchased Millipore KinaseProfiler
T3 sequence (P36896 24-505): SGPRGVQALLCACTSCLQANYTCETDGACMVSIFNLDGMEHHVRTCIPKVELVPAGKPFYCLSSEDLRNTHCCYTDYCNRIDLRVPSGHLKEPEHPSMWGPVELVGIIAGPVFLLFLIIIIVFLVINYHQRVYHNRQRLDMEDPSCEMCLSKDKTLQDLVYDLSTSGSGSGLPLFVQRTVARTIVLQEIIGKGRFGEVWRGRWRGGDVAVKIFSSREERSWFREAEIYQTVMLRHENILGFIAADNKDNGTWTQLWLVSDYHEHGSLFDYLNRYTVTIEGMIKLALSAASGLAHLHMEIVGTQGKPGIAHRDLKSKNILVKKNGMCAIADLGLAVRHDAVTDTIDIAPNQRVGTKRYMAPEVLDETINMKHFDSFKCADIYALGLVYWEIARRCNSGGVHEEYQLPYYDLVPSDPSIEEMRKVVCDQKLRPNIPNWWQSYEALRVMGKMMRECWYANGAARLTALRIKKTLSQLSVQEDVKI

[4] = target: RSK1 (Homo sapiens, UniProt Q15418); assay: Kinase IC50 assay
[5] = target: T4, Haspin(h) (Homo sapiens, UniProt Q8TF76); assay: Kinase panel
T4 construct: purchased Millipore KinaseProfiler
T4 sequence (Q8TF76 1-798): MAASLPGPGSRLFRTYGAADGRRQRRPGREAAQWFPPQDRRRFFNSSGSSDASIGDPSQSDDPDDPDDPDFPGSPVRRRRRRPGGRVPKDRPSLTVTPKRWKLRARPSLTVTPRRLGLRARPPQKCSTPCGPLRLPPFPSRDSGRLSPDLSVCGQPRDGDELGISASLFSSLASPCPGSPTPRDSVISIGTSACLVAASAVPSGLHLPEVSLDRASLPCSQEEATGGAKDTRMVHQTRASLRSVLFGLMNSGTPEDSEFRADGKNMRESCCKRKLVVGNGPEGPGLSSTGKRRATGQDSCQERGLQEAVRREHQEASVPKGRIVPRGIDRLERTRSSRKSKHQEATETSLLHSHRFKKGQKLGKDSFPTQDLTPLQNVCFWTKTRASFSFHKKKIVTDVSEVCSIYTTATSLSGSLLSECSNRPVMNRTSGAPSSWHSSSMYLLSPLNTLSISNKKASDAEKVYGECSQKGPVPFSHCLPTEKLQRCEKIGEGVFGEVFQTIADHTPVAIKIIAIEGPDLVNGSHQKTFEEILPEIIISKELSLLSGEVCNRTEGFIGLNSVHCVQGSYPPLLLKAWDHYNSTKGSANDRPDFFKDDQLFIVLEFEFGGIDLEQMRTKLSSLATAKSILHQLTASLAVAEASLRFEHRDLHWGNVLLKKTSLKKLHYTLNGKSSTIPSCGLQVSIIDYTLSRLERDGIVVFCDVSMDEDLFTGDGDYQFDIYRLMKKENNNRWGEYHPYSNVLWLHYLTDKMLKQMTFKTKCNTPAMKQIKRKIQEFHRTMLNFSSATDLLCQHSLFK

[6] = target: T5, IR(h) (Homo sapiens, UniProt P06213); assay: Kinase panel
T5 construct: purchased Millipore KinaseProfiler

[7] = target: T6, PKCε(h) (Homo sapiens, UniProt Q02156); assay: Kinase panel
T6 construct: purchased Millipore KinaseProfiler
T6 sequence (Q02156 1-737): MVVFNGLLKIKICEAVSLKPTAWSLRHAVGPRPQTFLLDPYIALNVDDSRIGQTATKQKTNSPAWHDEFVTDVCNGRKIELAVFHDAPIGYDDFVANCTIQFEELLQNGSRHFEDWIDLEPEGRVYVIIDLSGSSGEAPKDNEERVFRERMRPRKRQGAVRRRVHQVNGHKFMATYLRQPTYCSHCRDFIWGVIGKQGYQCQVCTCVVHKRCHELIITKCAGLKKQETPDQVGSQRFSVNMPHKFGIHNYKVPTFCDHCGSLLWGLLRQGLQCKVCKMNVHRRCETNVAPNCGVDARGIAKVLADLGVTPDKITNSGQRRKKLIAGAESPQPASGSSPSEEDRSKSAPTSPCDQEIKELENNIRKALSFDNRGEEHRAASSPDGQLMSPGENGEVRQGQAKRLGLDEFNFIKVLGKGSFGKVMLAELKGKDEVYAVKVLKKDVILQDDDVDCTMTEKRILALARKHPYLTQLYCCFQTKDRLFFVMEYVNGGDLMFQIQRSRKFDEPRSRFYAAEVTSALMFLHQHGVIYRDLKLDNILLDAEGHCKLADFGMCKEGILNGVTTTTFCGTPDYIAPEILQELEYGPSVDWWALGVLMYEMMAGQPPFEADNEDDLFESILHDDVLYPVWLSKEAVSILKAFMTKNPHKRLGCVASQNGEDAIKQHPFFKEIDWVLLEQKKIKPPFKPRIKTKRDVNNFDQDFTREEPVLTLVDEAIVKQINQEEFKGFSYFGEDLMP

[8] = target: T7, GRK7(h) (Homo sapiens, UniProt Q8WTQ7); assay: Kinase panel
T7 construct: purchased Millipore KinaseProfiler
T7 sequence (Q8WTQ7 1-553): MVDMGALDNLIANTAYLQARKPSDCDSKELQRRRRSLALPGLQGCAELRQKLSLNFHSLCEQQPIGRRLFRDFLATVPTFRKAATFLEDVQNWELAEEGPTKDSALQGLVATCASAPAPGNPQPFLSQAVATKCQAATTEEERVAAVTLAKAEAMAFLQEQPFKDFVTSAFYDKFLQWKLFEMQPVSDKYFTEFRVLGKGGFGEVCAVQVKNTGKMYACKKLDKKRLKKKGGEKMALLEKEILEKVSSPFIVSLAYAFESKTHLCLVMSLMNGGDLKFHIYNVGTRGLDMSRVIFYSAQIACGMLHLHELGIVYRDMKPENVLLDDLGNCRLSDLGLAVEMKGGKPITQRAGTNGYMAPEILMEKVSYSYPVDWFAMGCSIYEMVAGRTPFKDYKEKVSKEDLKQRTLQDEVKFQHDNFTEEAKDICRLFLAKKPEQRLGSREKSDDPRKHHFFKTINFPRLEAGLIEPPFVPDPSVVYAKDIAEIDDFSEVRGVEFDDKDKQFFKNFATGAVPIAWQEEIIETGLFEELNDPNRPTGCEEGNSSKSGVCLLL

T2 sequence (Q13557 whole entry): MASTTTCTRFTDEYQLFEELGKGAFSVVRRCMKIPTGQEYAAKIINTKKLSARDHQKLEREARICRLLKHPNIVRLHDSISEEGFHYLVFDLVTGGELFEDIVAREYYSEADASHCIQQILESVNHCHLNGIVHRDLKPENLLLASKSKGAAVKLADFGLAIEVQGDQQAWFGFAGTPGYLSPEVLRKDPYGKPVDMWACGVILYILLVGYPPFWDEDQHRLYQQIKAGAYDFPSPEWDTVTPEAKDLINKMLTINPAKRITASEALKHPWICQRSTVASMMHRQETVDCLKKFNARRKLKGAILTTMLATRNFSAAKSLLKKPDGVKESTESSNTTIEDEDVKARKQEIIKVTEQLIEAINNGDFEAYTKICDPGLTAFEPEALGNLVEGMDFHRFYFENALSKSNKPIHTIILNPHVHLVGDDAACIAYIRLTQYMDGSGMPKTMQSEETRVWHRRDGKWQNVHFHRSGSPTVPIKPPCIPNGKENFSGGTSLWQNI
T5 sequence (P06213 28-1382): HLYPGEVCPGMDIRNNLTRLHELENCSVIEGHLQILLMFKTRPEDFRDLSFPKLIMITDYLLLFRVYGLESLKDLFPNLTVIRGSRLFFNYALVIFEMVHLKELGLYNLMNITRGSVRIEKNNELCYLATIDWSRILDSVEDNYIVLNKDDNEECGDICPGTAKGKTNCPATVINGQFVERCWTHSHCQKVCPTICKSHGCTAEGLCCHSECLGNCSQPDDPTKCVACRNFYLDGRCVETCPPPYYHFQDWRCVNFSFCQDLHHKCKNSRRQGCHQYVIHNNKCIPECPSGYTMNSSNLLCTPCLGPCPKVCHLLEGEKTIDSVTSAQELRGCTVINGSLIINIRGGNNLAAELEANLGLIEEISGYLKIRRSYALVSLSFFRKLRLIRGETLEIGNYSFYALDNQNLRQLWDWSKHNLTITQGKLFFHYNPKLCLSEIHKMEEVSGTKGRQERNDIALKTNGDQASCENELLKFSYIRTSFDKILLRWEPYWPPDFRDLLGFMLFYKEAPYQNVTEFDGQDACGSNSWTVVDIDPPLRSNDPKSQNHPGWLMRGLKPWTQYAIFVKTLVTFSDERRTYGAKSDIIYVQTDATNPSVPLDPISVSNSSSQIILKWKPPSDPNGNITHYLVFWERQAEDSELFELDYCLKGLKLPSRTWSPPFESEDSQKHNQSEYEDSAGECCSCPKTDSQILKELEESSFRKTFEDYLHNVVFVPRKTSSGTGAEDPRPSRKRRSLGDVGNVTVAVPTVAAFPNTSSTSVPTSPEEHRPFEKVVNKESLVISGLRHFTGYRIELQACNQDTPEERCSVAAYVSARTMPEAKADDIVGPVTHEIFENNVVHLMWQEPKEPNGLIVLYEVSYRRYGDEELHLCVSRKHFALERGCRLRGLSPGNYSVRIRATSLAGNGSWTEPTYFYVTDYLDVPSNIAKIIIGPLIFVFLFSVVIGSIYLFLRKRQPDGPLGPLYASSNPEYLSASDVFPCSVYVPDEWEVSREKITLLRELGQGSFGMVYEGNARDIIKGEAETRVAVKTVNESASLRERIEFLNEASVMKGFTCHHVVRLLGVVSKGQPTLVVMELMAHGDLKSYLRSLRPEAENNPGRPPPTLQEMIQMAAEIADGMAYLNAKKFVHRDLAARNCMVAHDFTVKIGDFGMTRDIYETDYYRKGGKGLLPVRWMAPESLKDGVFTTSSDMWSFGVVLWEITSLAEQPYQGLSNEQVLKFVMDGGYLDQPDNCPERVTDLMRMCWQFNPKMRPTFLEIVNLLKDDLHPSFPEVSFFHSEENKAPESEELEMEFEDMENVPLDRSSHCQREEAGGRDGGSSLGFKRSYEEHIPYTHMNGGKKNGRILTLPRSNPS
T1 sequence (Q13882 whole entry): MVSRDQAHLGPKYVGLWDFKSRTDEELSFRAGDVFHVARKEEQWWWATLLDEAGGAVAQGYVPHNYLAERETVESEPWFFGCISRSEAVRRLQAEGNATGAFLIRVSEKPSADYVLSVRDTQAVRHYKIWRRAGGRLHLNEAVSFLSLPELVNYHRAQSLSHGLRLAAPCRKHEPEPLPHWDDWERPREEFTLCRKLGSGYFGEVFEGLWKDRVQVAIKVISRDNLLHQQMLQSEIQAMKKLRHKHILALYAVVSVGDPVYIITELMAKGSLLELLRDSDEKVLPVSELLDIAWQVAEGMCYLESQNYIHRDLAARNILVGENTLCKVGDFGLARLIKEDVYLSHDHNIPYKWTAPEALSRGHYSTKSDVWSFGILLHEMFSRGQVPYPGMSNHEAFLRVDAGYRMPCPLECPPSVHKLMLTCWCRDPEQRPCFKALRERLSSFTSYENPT
Sequence of RSK1 (Q15418 whole entry): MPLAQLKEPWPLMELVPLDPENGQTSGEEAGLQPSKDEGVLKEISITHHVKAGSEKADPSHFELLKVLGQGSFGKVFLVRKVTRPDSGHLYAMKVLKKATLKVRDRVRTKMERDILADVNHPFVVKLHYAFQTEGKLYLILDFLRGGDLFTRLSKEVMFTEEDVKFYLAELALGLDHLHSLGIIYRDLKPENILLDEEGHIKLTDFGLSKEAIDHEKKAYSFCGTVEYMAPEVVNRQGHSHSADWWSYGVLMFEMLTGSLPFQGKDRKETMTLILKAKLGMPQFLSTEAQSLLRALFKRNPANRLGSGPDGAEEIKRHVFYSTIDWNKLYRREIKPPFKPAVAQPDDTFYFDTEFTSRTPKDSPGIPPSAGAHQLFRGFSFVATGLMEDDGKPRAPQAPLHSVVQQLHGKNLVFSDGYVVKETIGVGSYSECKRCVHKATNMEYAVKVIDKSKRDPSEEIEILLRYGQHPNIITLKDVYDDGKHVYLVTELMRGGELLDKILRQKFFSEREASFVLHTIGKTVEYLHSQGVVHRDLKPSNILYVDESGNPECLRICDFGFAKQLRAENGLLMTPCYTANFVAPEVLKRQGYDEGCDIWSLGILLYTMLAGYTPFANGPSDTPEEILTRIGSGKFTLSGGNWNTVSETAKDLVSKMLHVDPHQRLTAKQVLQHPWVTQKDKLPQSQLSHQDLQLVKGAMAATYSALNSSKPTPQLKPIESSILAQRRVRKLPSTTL

## Cn1ncc(Cl)c1-c1cc(C(=O)N[C@H](CN)Cc2cccc(F)c2)sc1Cl [GSK2110183]
[1]
  inhibition at 0.5 µM: 0%
  inhibition at 10 µM: -2%
[2]
  inhibition at 0.5 µM: -20%
  inhibition at 10 µM: 12%
[3]
  inhibition at 0.5 µM: 3%
  inhibition at 10 µM: 0%
[4]
  IC50: 316 nM
[5]
  inhibition at 0.5 µM: 46%
  inhibition at 10 µM: 90%
[6]
  inhibition at 0.5 µM: 35%
  inhibition at 10 µM: 32%
[7]
  inhibition at 0.5 µM: 19%
  inhibition at 10 µM: 80%
[8]
  inhibition at 0.5 µM: 64%
  inhibition at 10 µM: 96%

## Cn1ncc(Cl)c1-c1cc(C(=O)N[C@H](CN)Cc2ccc(F)c(F)c2)oc1Cl [GSK2141795]
[1]; 0.5 µM, read-out: % Inhibition
  inhibition at 0.5 µM: -15%
[1]; 10 µM, read-out: % Inhibition
  inhibition at 10 µM: 25%
[2]; 0.5 µM, read-out: % Inhibition
  inhibition at 0.5 µM: 53%
[2]; 10 µM, read-out: % Inhibition
  inhibition at 10 µM: 94%
[3]; 0.5 µM, read-out: % Inhibition
  inhibition at 0.5 µM: -8%
[3]; 10 µM, read-out: % Inhibition
  inhibition at 10 µM: -18%
[4]
  IC50: 200 nM
[5]; 0.5 µM, read-out: % Inhibition
  inhibition at 0.5 µM: 76%
[5]; 10 µM, read-out: % Inhibition
  inhibition at 10 µM: 101%
[6]; 0.5 µM, read-out: % Inhibition
  inhibition at 0.5 µM: -8%
[6]; 10 µM, read-out: % Inhibition
  inhibition at 10 µM: 41%
[7]; 0.5 µM, read-out: % Inhibition
  inhibition at 0.5 µM: 32%
[7]; 10 µM, read-out: % Inhibition
  inhibition at 10 µM: 81%
[8]; 0.5 µM, read-out: % Inhibition
  inhibition at 0.5 µM: 42%
[8]; 10 µM, read-out: % Inhibition
  inhibition at 10 µM: 76%
